Source: patent publication US20130059830A1, “NOVEL PROLYLCARBOXYPEPTIDASE INHIBITORS” (priority 2010, published 2013)

target: T1, human PrCP (Homo sapiens, UniProt P42785); assay: Prolylcarboxypeptidase (PRCP) enzyme activity assay, fluorescence intensity kinetic assay, human enzyme; type: biochemical; details: recombinant human PrCP, 15 uM substrate, pH 5.5, 37° C.
T1 construct: made in house
T1 sequence (P42785 46-496): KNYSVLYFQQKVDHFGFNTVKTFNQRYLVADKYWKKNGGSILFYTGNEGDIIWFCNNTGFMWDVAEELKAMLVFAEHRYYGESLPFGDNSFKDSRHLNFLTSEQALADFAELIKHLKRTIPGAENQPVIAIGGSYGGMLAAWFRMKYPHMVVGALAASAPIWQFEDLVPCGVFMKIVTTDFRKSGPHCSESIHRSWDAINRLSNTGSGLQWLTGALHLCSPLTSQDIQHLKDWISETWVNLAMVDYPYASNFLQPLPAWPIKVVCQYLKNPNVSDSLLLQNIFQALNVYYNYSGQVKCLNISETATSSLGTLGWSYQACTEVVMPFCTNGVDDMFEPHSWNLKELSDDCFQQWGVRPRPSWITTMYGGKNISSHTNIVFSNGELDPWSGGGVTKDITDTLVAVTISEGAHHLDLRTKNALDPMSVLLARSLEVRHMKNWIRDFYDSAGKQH
Procedure: The potency of compounds of formula I against PrCP was determined by a fluorescence intensity kinetic assay measuring the IC50 values of PrCP inhibitor test compounds. […] The assay was run on a Perkin Elmer Envision 2103 plate reader using a 320 nm excitation filter and a 405 emission filter. The assay was performed using a Hamilton Star liquid handling workstation. The assay employed the internally quenched fluorescent substrate (1S)-1-carboxy-5-[(2,4-dinitrophenyl)amino]pentyl N-[(7-methoxy-2-oxo-2H-chromen-4-yl)acetyl]-L-alanyl-L-prolinate prepared in house.
The assay was run in a 384-well microtiter plate at 37° C. with a total volume of 50 uL. Final assay concentrations were 0.13 nM human PrCP (CHO) or 0.09 nM mouse PrCP (CHO) enzyme, 15 uM substrate and varying concentrations of inhibitor in buffer containing 10 mM NaOAc, 100 mM NaCl and 19.5 ug/mL BSA at pH 5.5. The assay also contained 2% DMSO used to solubilize the substrate and inhibitor. Inhibitors were prepared in 100% DMSO and serial diluted (in 100% DMSO) to generate 11 point titration curves. Either 39 uL of human or mouse PrCP enzyme was added to the wells of the assay plate, followed by a 1 uL addition of the serially diluted inhibitor and mixed three times using a 30 uL mix volume. The reaction was initiated by the addition of 10 uL substrate and mixed three times using a 30 uL mix volume. The reactions were monitored continuously over 25 min at 37° C. to obtain initial velocities. […] values were calculated by comparing the resulting rates of reaction of the inhibited and control initial velocities.
The enzymes were diluted in a mixture of 10 mM NaOAc (pH 5.5)/100 mM NaCl buffer containing 25 ug/mL bovine serum albumin that had been warmed to 37° C. in a water bath. The PrCP inhibitor test compounds were plated in 100% DMSO with a highest concentration of 500 uM. There were 12 dilution points for each compound tested including a blank with DMSO only. The test compounds from the source titration plate were transferred into the assay reaction plate at a 1:50 dilution using the Hamilton Star workstation and mixed, resulting in a final concentration for the test compounds in the range of 10,000 to 0.066 nM. Likewise, two control compounds were similarly titrated and included in each assay, with final starting concentrations starting at 10,000 nM and 200 nM, respectively. The reaction was initiated by the addition of 75 uM of the (1S)-1-carboxy-5-[(2,4-dinitrophenyl)amino]pentyl N-[(7-methoxy-2-oxo-2H-chromen-4-yl)acetyl]-L-alanyl-L-prolinate substrate, which was diluted in a mixture of 10 mM NaOAc (pH 5.5)/100 mM NaCl that had been warmed to 37° C. in a water bath, dispensed using the Hamilton Star workstation and mixed. The substrate was solubilized in 100% DMSO prior to dilution into the assay. The final assay concentrations in the 50 uL reactions were 15 uM of (1S)-1-carboxy-5-[(2,4-dinitrophenyl)amino]pentyl N-[(7-methoxy-2-oxo-2H-chromen-4-yl)acetyl]-L-alanyl-L-prolinate substrate, 0.13 nM Human PrCP (CHO) or 0.09 nM Mouse PrCP (CHO), and 2% DMSO.

Compound	IC50
Fc1ccc(-c2cc([C@H]3CC[C@H](c4ccccc4)NC3)n(-c3ncccn3)n2)cc1 (mixture of isomers) [Example 4]	4.1 nM
COC(=O)N1C[C@@H](c2cc(-c3ccc(Cl)cc3)nn2-c2ncccn2)CC[C@@H]1c1ccccc1 (mixture of isomers) [Example 13]	1.3 nM
CNC(=O)N1C[C@@H](c2cc(-c3ccc(F)cc3)nn2-c2ncccn2)CC[C@@H]1c1ccccc1 (mixture of isomers) [Example 95]	10 nM
CC(C)(C)OC(=O)N1C[C@H](c2cc(-c3ccc(F)cc3)nn2-c2ncccn2)CC[C@@H]1CCc1ccccc1 (racemic) [Example 5, tert-Butyl 5-[3-(4-fluorophenyl)-1-(pyrimidin-2-yl)-1H-pyrazol-5-yl]-2-(2-phenylethyl)piperidine-1-carboxylate]	8 nM
Fc1ccc(-c2cc([C@@H]3CC[C@H](CCc4ccccc4)NC3)n(-c3ncccn3)n2)cc1 (racemic) [Example 6, 2-{3-(4-Fluorophenyl)-5-[6-(2-phenylethyl)piperidin-3-yl]-1H-pyrazol-1-yl}pyrimidine]	2.1 nM
Clc1ccc(-c2cc(C3CNC(CCc4ccccc4)CO3)n(-c3ncccn3)n2)cc1 (single isomer, unassigned) [Example 8, 2-[3-(4-Chlorophenyl)-1-(pyrimidin-2-yl)-1H-pyrazol-5-yl]-5-(2-phenylethyl)morpholine]	12 nM
O=C(Cc1cccc2ccccc12)N1CCCC(c2cc(-c3ccc(F)cc3)nn2-c2ncccn2)C1 (stereo not shown) [Example 17]	1.2 nM
O=C(Cc1ccccc1C(F)(F)F)N1CCCC(c2cc(-c3ccc(F)cc3)nn2-c2ncccn2)C1 (stereo not shown) [Example 20]	0.65 nM
O=C(CC1CCCCC1)N1CCCC(c2cc(-c3ccc(F)cc3)nn2-c2ncccn2)C1 (stereo not shown) [Example 36]	30 nM
O=C(NCCc1ccc(F)cc1)N1CCCC(c2cc(-c3ccc(F)cc3)nn2-c2ncccn2)C1 (stereo not shown) [Example 82]	27 nM
O=S(=O)(CCC(F)(F)F)N1CCCC(c2cc(-c3ccc(F)cc3)nn2-c2ncccn2)C1 (stereo not shown) [Example 109]	4.5 nM

system: rats; assay: not given; details: intracerebroventricular; cited from earlier work

Compound	overnight food intake
t-butyl carbamate-prolyl prolinal [BPP]	suppression of overnight food intake

system: obese, leptin deficient mice; assay: not given; details: systemic administration; cited from earlier work

Compound	overnight food intake
t-butyl carbamate-prolyl prolinal [BPP]	suppression of overnight food intake
